# Experimental data taken from ChEMBL document CHEMBL6096732 (J Med Chem, 2025).
# Biological target: Histone deacetylase 3 (Homo sapiens, UniProt O15379);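 further: recombinant HDAC3 enzyme with Boc-Lys(acetyl)-AMC substrate, fluorescence readout, compound preincubated 1 hr before a 2 hr reaction, inhibition expressed relative to control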
# Details: dose 500.0 nM, time 3.0 hrs
# Histone deacetylase 3, sequence (O15379 whole entry): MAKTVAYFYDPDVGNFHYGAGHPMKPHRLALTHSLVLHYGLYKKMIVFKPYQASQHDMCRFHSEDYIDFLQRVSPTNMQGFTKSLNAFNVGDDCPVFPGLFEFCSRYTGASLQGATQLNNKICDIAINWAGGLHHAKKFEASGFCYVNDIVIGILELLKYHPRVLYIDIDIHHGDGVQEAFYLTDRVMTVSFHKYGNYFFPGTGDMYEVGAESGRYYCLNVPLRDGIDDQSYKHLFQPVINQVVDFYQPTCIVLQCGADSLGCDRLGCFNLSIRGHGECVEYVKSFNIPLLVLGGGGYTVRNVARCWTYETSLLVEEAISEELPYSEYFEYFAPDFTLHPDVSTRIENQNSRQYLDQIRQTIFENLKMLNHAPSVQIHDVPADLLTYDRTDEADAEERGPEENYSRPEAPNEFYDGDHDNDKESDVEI
row,Structure (SMILES),inhibition [%]
1,CCCNNC(=O)c1ccc(Cn2c3ccccc3c3c(-c4ccc(C(=O)NNCCC)cc4)nc4ccccc4c32)cc1,38
2,CCCCCCCNNC(=O)c1ccc(Cn2c3ccccc3c3c(-c4ccccn4)nc4ccccc4c32)cc1,53
3,CCCNNC(=O)c1ccc(Cn2c3ccccc3c3c(-c4ccc(OC)cc4)nc4ccccc4c32)cc1,58
4,CCCNNC(=O)c1ccc(Cn2c3ccccc3c3c(-c4ccc(O)c(OC)c4)nc4ccccc4c32)cc1,79
5,CCCNNC(=O)c1ccc(Cn2c3ccccc3c3c(-c4cc(OC)ccc4O)nc4ccccc4c32)cc1,66
6,CCCNNC(=O)c1ccc(Cn2c3ccccc3c3c(-c4cn(C)c5ccccc45)nc4ccccc4c32)cc1,36
7,CCCCCCCCCNNC(=O)c1ccc(Cn2c3ccccc3c3c(-c4ccccn4)nc4ccccc4c32)cc1,29
8,CCCN(CCC)NC(=O)c1ccc(Cn2c3ccccc3c3c(-c4ccccn4)nc4ccccc4c32)cc1,29
9,CC(C)NNC(=O)c1ccc(Cn2c3ccccc3c3c(-c4ccccn4)nc4ccccc4c32)cc1,< 10

# Next, values leading:
row,inhibition [%],Structure (SMILES)
1,31,CCCN(CCC)NC(=O)c1ccc(Cn2c3ccccc3c3c(-c4cccc(F)c4)nc4ccccc4c32)cc1
2,69,CCCNNC(=O)c1ccc(Cn2c3ccccc3c3c(-c4cccc(F)c4)nc4ccccc4c32)cc1
3,73,CCCNNC(=O)c1ccc(Cn2c3ccccc3c3c(C4CCN(C(=O)OC(C)(C)C)CC4)nc4ccccc4c32)cc1
4,47,CCCNNC(=O)c1ccc(Cn2c3ccccc3c3c(-c4cccc([N+](=O)[O-])c4)nc4ccccc4c32)cc1
5,73,CCCNNC(=O)c1ccc(Cn2c3ccccc3c3c(-c4cccc(Cl)c4)nc4ccccc4c32)cc1
6,92,CCCCNNC(=O)c1ccc(Cn2c3ccccc3c3c(-c4ccccn4)nc4ccccc4c32)cc1

# Biological target: Histone deacetylase 1 (Homo sapiens, UniProt Q13547)
# Details: dose 500.0 nM, time 3.0 hrs
# Histone deacetylase 1, sequence (Q13547 whole entry): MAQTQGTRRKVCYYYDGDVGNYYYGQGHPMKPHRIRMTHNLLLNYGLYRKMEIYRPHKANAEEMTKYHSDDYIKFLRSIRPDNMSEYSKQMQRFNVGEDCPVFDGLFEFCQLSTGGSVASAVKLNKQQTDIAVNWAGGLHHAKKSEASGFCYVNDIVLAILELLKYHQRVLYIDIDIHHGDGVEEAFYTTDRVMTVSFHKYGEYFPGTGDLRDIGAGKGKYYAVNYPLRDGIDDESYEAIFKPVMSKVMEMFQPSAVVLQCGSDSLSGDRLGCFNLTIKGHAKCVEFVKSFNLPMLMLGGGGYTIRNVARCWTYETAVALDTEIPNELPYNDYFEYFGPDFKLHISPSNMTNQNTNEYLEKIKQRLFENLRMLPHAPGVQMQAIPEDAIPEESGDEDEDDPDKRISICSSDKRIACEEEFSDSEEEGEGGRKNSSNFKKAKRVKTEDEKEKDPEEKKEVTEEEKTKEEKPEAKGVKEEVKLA
row,Structure (SMILES),inhibition [%]
1,CCCNNC(=O)c1ccc(Cn2c3ccccc3c3c(-c4ccc(C(=O)NNCCC)cc4)nc4ccccc4c32)cc1,< 10
2,CCCCCCCNNC(=O)c1ccc(Cn2c3ccccc3c3c(-c4ccccn4)nc4ccccc4c32)cc1,22
3,CCCNNC(=O)c1ccc(Cn2c3ccccc3c3c(-c4ccc(OC)cc4)nc4ccccc4c32)cc1,29
4,CCCNNC(=O)c1ccc(Cn2c3ccccc3c3c(-c4ccc(O)c(OC)c4)nc4ccccc4c32)cc1,20
5,CCCNNC(=O)c1ccc(Cn2c3ccccc3c3c(-c4cc(OC)ccc4O)nc4ccccc4c32)cc1,27
6,CCCNNC(=O)c1ccc(Cn2c3ccccc3c3c(-c4cn(C)c5ccccc45)nc4ccccc4c32)cc1,< 10
7,CCCCCCCCCNNC(=O)c1ccc(Cn2c3ccccc3c3c(-c4ccccn4)nc4ccccc4c32)cc1,< 10
8,CCCN(CCC)NC(=O)c1ccc(Cn2c3ccccc3c3c(-c4ccccn4)nc4ccccc4c32)cc1,23
9,CC(C)NNC(=O)c1ccc(Cn2c3ccccc3c3c(-c4ccccn4)nc4ccccc4c32)cc1,< 10

# The next lines start with the values.
row,inhibition [%],Structure (SMILES)
1,27,CCCN(CCC)NC(=O)c1ccc(Cn2c3ccccc3c3c(-c4cccc(F)c4)nc4ccccc4c32)cc1
2,20,CCCNNC(=O)c1ccc(Cn2c3ccccc3c3c(-c4cccc(F)c4)nc4ccccc4c32)cc1
3,22,CCCNNC(=O)c1ccc(Cn2c3ccccc3c3c(C4CCN(C(=O)OC(C)(C)C)CC4)nc4ccccc4c32)cc1
4,< 10,CCCNNC(=O)c1ccc(Cn2c3ccccc3c3c(-c4cccc([N+](=O)[O-])c4)nc4ccccc4c32)cc1
5,25,CCCNNC(=O)c1ccc(Cn2c3ccccc3c3c(-c4cccc(Cl)c4)nc4ccccc4c32)cc1
6,35,CCCCNNC(=O)c1ccc(Cn2c3ccccc3c3c(-c4ccccn4)nc4ccccc4c32)cc1

# Biological target: T1, Protein deacetylase HDAC6 (Homo sapiens) (UniProt Q9UBN7)
# T1 sequence (whole entry): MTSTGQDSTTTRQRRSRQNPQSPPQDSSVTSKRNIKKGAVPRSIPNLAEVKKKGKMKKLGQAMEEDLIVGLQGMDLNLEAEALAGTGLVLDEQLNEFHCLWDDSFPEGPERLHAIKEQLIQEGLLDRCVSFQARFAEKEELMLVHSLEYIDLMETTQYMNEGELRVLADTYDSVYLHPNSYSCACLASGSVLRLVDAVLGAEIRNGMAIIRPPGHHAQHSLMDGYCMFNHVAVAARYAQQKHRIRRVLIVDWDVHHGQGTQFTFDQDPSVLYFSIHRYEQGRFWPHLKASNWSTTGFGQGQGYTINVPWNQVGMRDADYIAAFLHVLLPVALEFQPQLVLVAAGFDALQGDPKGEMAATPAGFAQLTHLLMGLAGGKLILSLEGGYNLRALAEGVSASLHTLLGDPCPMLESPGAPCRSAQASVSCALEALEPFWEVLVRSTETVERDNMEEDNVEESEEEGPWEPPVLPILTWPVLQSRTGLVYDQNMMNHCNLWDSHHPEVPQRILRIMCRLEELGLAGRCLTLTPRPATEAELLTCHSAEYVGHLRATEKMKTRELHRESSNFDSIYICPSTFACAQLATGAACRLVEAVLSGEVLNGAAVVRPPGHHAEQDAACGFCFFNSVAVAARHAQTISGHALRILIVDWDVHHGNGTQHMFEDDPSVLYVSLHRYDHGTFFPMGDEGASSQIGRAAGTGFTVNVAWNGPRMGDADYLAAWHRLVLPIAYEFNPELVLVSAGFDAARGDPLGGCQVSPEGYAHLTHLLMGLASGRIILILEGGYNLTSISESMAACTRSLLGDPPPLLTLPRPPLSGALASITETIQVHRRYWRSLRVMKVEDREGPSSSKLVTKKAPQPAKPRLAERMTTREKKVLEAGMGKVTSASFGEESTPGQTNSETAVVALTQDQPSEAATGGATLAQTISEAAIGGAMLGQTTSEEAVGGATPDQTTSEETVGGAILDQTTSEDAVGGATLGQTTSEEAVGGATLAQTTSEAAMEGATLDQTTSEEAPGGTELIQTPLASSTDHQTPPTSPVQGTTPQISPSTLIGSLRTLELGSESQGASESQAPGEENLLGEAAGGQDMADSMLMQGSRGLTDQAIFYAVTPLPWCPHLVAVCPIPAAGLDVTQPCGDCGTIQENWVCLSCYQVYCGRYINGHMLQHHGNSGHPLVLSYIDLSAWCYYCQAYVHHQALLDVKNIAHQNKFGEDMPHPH
# Details: dose 500.0 nM, time 3.0 hrs
row,Structure (SMILES),inhibition [%]
1,CCCNNC(=O)c1ccc(Cn2c3ccccc3c3c(-c4ccc(C(=O)NNCCC)cc4)nc4ccccc4c32)cc1,< 10
2,CCCCCCCNNC(=O)c1ccc(Cn2c3ccccc3c3c(-c4ccccn4)nc4ccccc4c32)cc1,< 10
3,CCCNNC(=O)c1ccc(Cn2c3ccccc3c3c(-c4ccc(OC)cc4)nc4ccccc4c32)cc1,< 10
4,CCCNNC(=O)c1ccc(Cn2c3ccccc3c3c(-c4ccc(O)c(OC)c4)nc4ccccc4c32)cc1,< 10
5,CCCNNC(=O)c1ccc(Cn2c3ccccc3c3c(-c4cc(OC)ccc4O)nc4ccccc4c32)cc1,14
6,CCCNNC(=O)c1ccc(Cn2c3ccccc3c3c(-c4cn(C)c5ccccc45)nc4ccccc4c32)cc1,< 10
7,CCCCCCCCCNNC(=O)c1ccc(Cn2c3ccccc3c3c(-c4ccccn4)nc4ccccc4c32)cc1,< 10
8,CCCN(CCC)NC(=O)c1ccc(Cn2c3ccccc3c3c(-c4ccccn4)nc4ccccc4c32)cc1,< 10
9,CC(C)NNC(=O)c1ccc(Cn2c3ccccc3c3c(-c4ccccn4)nc4ccccc4c32)cc1,< 10

# The remaining lines, values ahead:
row,inhibition [%],Structure (SMILES)
1,< 10,CCCN(CCC)NC(=O)c1ccc(Cn2c3ccccc3c3c(-c4cccc(F)c4)nc4ccccc4c32)cc1
2,< 10,CCCNNC(=O)c1ccc(Cn2c3ccccc3c3c(-c4cccc(F)c4)nc4ccccc4c32)cc1
3,< 10,CCCNNC(=O)c1ccc(Cn2c3ccccc3c3c(C4CCN(C(=O)OC(C)(C)C)CC4)nc4ccccc4c32)cc1
4,18,CCCNNC(=O)c1ccc(Cn2c3ccccc3c3c(-c4cccc([N+](=O)[O-])c4)nc4ccccc4c32)cc1
5,< 10,CCCNNC(=O)c1ccc(Cn2c3ccccc3c3c(-c4cccc(Cl)c4)nc4ccccc4c32)cc1
6,< 10,CCCCNNC(=O)c1ccc(Cn2c3ccccc3c3c(-c4ccccn4)nc4ccccc4c32)cc1
